Reference: ChEMBL document CHEMBL1143055, “2,3,5-Substituted tetrahydrofurans as cancer chemopreventives. Part 1: synthesis and anti-cancer activities of 5-hydroxymethyl-2,3-diaryl-tetrahydro-furan-3-ols” (2007)

Experiments:
SF-268 = test: Antitumor activity against human SF268 cells; assay type: functional
BT-549 = test: Antitumor activity against human BT549 cells; assay type: functional
MCF7 = test: Antitumor activity against human MCF7 cells; assay type: functional
UO-31 = test: Antitumor activity against human UO31 cells; assay type: functional
OVCAR-4 = test: Antitumor activity against human OVCAR4 cells; assay type: functional
SF-295 = test: Antitumor activity against human SF295 cells; assay type: functional
LOX IMVI = test: Antitumor activity against human LOX IMVI cells; assay type: functional
CCRF-CEM [1] = test: Antitumor activity against human CCRF-CEM cells; assay type: functional
MDA-MB-435 = test: Antitumor activity against human MDA-MB-435 cells; assay type: functional
PC-3 = test: Antitumor activity against human PC3 cells; assay type: functional
A549 = test: Antitumor activity against human A549 cells; assay type: functional
786-0 = test: Antitumor activity against human 786-0 cells; assay type: functional
NCI-H522 [2] = test: Growth inhibition of human NCI-H522 cells at 10 uM; assay type: functional
IGROV-1 [3] = test: Growth inhibition of human IGROV1 cells at 1 uM; assay type: functional
NCI-H522 [4] = test: Antitumor activity against human NCI-H522 cells; assay type: functional
HCC 2998 = test: Antitumor activity against human HCC2998 cells; assay type: functional
SR [5] = test: Antitumor activity against human SR cells; assay type: functional
RXF 393 = test: Antitumor activity against human RXF393 cells; assay type: functional
COLO 205 = test: Antitumor activity against human COLO205 cells; assay type: functional
SF-539 = test: Antitumor activity against human SF539 cells; assay type: functional
UACC-62 = test: Antitumor activity against human UACC62 cells; assay type: functional
OVCAR-8 = test: Antitumor activity against human OVCAR8 cells; assay type: functional
HCT-15 = test: Antitumor activity against human HCT15 cells; assay type: functional
RPMI-8226 = test: Antitumor activity against human RPMI8226 cells; assay type: functional
[6] = Antitumor activity against human […] cells; assay type: functional
HT-29 = test: Antitumor activity against human HT29 cells; assay type: functional
K562 = test: Antitumor activity against human K562 cells; assay type: functional
ACHN = test: Antitumor activity against human ACHN cells; assay type: functional
HOP-92 = test: Antitumor activity against human HOP92 cells; assay type: functional
OVCAR-5 = test: Antitumor activity against human OVCAR5 cells; assay type: functional
MOLT-4 = test: Antitumor activity against human MOLT4 cells; assay type: functional
[7] = Antitumor activity against human HS 578T cells; assay type: functional
SK-MEL-28 = test: Antitumor activity against human SK-MEL-28 cells; assay type: functional
NCI-H23 = test: Antitumor activity against human NCI-H23 cells; assay type: functional
SNB-75 = test: Antitumor activity against human SNB75 cells; assay type: functional
NCI/ADR-RES = test: Antitumor activity against human NCI/ADR-RES cells; assay type: functional
HOP-62 = test: Antitumor activity against human HOP62 cells; assay type: functional
A498 = test: Antitumor activity against human A498 cells; assay type: functional
TK-10 = test: Antitumor activity against human TK10 cells; assay type: functional
SK-MEL-5 = test: Antitumor activity against human SK-MEL-5 cells; assay type: functional
IGROV-1 [8] = test: Growth inhibition of human IGROV1 cells at 0.1 uM; assay type: functional
IGROV-1 [9] = test: Growth inhibition of human IGROV1 cells at 10 uM; assay type: functional
U-251 = test: Antitumor activity against human U251 cells; assay type: functional
DU-145 = test: Antitumor activity against human DU145 cells; assay type: functional
IGROV-1 [10] = test: Growth inhibition of human IGROV1 cells at 10 nM; assay type: functional
[11] = Antitumor activity against human NCI-H322 cells; assay type: functional
CAKI-1 = test: Antitumor activity against human CAKI-1 cells; assay type: functional
[12] = Antitumor activity against human HL60 (TB) cells; assay type: functional, HL-60(TB); conditions: HL-60
NCI-H226 = test: Antitumor activity against human NCI-H226 cells; assay type: functional
UACC-257 = test: Antitumor activity against human UACC257 cells; assay type: functional
SN12C = test: Antitumor activity against human SN12C cells; assay type: functional
OVCAR-3 = test: Antitumor activity against human OVCAR-3 cells; assay type: functional
IGROV-1 [13] = test: Antitumor activity against human IGROV1 cells; assay type: functional
EKVX = test: Antitumor activity against human EKVX cells; assay type: functional
SNB-19 = test: Antitumor activity against human SNB19 cells; assay type: functional
SW-620 = test: Antitumor activity against human SW620 cells; assay type: functional
SK-OV-3 = test: Antitumor activity against human SK-OV-3 cells; assay type: functional
HCT-116 = test: Antitumor activity against human HCT116 cells; assay type: functional
NCI-H460 = test: Antitumor activity against human NCI-H460 cells; assay type: functional
NCI-H522 [14] = test: Growth inhibition of human NCI-H522 cells at 1 uM; assay type: functional
KM12 = test: Antitumor activity against human KM12 cells; assay type: functional
Malme-3M = test: Antitumor activity against human MALME-3M cells; assay type: functional
SR [15] = test: Growth inhibition of human SR cells at 1 uM; assay type: functional
CCRF-CEM [16] = test: Growth inhibition of huam CCRF-CEM at 1 uM; assay type: functional; conditions: Homo sapiens
[17] = Growth inhibition of human HS 578T cells at 10 nM; assay type: functional

OC[C@H]1C[C@](O)(c2ccccc2Cl)[C@@H](c2ccccc2Cl)O1 (relative stereo)
GI50 (SF-268): 24 µM | GI50 (BT-549): 17 µM | GI50 (MCF7): 26.9 µM | GI50 (UO-31): 22.9 µM | GI50 (OVCAR-4): 24.5 µM | GI50 (SF-295): 26.9 µM | GI50 (LOX IMVI): 17 µM | GI50 (CCRF-CEM [1]): 27.5 µM | GI50 (MDA-MB-435): 16.2 µM | GI50 (PC-3): 24 µM | GI50 (A549): 22.9 µM | GI50 (786-0): 26.3 µM | inhibition at 10 µM (NCI-H522 [2]): 36% | inhibition at 1 µM (IGROV-1 [3]): 32% | GI50 (NCI-H522 [4]): 13.5 µM | GI50 (HCC 2998): 29.5 µM | GI50 (SR [5]): 17 µM | GI50 (RXF 393): 18.6 µM | GI50 (COLO 205): 14.8 µM | GI50 (SF-539): 22.4 µM | GI50 (UACC-62): 16.6 µM | GI50 (OVCAR-8): 26.3 µM | GI50 (HCT-15): 28.2 µM | GI50 (RPMI-8226): 21.9 µM | GI50 [6]: 18.6 µM | GI50 (HT-29): 17 µM | GI50 (K562): 20 µM | GI50 (ACHN): 27.5 µM | GI50 (HOP-92): 22.4 µM | GI50 (OVCAR-5): 22.9 µM | GI50 (MOLT-4): 17 µM | GI50 [7]: 16.2 µM | GI50 (SK-MEL-28): 26.3 µM | GI50 (NCI-H23): 25.7 µM | GI50 (SNB-75): 20.9 µM | GI50 (NCI/ADR-RES): 29.5 µM | GI50 (HOP-62): 31.6 µM | GI50 (A498): 22.9 µM | GI50 (TK-10): 20.9 µM | GI50 (SK-MEL-5): 17 µM | inhibition at 0.1 µM (IGROV-1 [8]): 28% | inhibition at 10 µM (IGROV-1 [9]): 46% | GI50 (U-251): 28.2 µM | GI50 (DU-145): 26.9 µM | inhibition at 0.01 µM (IGROV-1 [10]): 15% | GI50 [11]: 32.4 µM | GI50 (CAKI-1): 32.4 µM | GI50 [12]: 16.6 µM | GI50 (NCI-H226): 26.3 µM | GI50 (UACC-257): 19.1 µM | GI50 (SN12C): 20.9 µM | GI50 (OVCAR-3): 19.5 µM | GI50 (IGROV-1 [13]): 11 µM | GI50 (EKVX): 19.1 µM | GI50 (SNB-19): 31.6 µM | GI50 (SW-620): 30.2 µM | GI50 (SK-OV-3): 23.4 µM | GI50 (HCT-116): 25.7 µM | GI50 (NCI-H460): 20 µM | inhibition at 1 µM (NCI-H522 [14]): 27% | GI50 (KM12): 25.7 µM | GI50 (Malme-3M): 21.4 µM

OC[C@H]1C[C@](O)(c2ccc(Cl)cc2)[C@@H](c2ccc(Cl)cc2)O1 (relative stereo)
GI50 (SF-268): 26.9 µM | GI50 (BT-549): 16.6 µM | GI50 (MCF7): 30.2 µM | GI50 (UO-31): 19.5 µM | GI50 (OVCAR-4): 32.4 µM | GI50 (SF-295): 30.2 µM | GI50 (LOX IMVI): 17.8 µM | GI50 (CCRF-CEM [1]): 0.468 µM | GI50 (MDA-MB-435): 22.9 µM | GI50 (PC-3): 20 µM | GI50 (A549): 29.5 µM | GI50 (786-0): 22.4 µM | GI50 (NCI-H522 [4]): 26.3 µM | GI50 (HCC 2998): 24 µM | GI50 (SR [5]): 20.4 µM | GI50 (RXF 393): 20.9 µM | GI50 (COLO 205): 25.7 µM | GI50 (SF-539): 23.4 µM | GI50 (UACC-62): 15.8 µM | GI50 (OVCAR-8): 30.9 µM | GI50 (HCT-15): 31.6 µM | GI50 (RPMI-8226): 13.8 µM | GI50 [6]: 19.5 µM | GI50 (HT-29): 24 µM | GI50 (K562): 25.1 µM | GI50 (ACHN): 28.2 µM | GI50 (HOP-92): 17 µM | GI50 (OVCAR-5): 25.7 µM | GI50 (MOLT-4): 17.8 µM | GI50 [7]: 18.2 µM | GI50 (SK-MEL-28): 28.8 µM | GI50 (NCI-H23): 24.5 µM | GI50 (SNB-75): 22.9 µM | GI50 (NCI/ADR-RES): 30.2 µM | GI50 (HOP-62): 20.9 µM | GI50 (A498): 24.5 µM | GI50 (TK-10): 30.2 µM | GI50 (SK-MEL-5): 15.1 µM | GI50 (U-251): 24.5 µM | GI50 (DU-145): 21.9 µM | GI50 [11]: 35.5 µM | GI50 (CAKI-1): 26.9 µM | GI50 [12]: 17.4 µM | GI50 (NCI-H226): 26.3 µM | GI50 (UACC-257): 21.4 µM | GI50 (SN12C): 17 µM | inhibition at 1 µM (SR [15]): 87% | GI50 (OVCAR-3): 26.3 µM | GI50 (EKVX): 18.2 µM | inhibition at 1 µM (CCRF-CEM [16]): 71% | GI50 (SNB-19): 38 µM | inhibition at 0.01 µM [17]: 21% | GI50 (SW-620): 27.5 µM | GI50 (SK-OV-3): 39.8 µM | GI50 (HCT-116): 17.4 µM | GI50 (NCI-H460): 20 µM | GI50 (KM12): 20.4 µM | GI50 (Malme-3M): 21.4 µM
